Legend:
[1] = molecular target: T1, human α1G T-type channels (Homo sapiens, UniProt O43497); test: T-type calcium channel block, whole cell patch clamp (α1G); type: cell-based; conditions: HEK cells stably expressing human α1G; mainly non-inactivated protocol; values above 10 μM represented as 10 μM, values below 0.30 μM represented as 0.30 μM
T1 construct: expressed in transfected cells; host or cells: HEK 293
Method in brief: (§1)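 Resting block was measured mainly with the non-inactivated protocol: holding potential −110 mV, 1 s step to −100 mV, then a 50 ms test pulse at −40 mV. Recordings used stably transfected human α1G or α1H HEK293 lines, with compounds perfused in external solution containing 0.1-0.01% DMSO. IC50 values (μM) above 10 μM are reported as 10 μM.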

[2] = molecular target: T2, human α1H T-type channels (Homo sapiens, UniProt O95180); test: T-type calcium channel block, whole cell patch clamp (α1H); type: cell-based; conditions: HEK cells stably expressing human α1H; mainly non-inactivated protocol; values above 10 μM represented as 10 μM
T2 construct: expressed in transfected cells; host or cells: HEK 293
T2 sequence (O95180 whole entry): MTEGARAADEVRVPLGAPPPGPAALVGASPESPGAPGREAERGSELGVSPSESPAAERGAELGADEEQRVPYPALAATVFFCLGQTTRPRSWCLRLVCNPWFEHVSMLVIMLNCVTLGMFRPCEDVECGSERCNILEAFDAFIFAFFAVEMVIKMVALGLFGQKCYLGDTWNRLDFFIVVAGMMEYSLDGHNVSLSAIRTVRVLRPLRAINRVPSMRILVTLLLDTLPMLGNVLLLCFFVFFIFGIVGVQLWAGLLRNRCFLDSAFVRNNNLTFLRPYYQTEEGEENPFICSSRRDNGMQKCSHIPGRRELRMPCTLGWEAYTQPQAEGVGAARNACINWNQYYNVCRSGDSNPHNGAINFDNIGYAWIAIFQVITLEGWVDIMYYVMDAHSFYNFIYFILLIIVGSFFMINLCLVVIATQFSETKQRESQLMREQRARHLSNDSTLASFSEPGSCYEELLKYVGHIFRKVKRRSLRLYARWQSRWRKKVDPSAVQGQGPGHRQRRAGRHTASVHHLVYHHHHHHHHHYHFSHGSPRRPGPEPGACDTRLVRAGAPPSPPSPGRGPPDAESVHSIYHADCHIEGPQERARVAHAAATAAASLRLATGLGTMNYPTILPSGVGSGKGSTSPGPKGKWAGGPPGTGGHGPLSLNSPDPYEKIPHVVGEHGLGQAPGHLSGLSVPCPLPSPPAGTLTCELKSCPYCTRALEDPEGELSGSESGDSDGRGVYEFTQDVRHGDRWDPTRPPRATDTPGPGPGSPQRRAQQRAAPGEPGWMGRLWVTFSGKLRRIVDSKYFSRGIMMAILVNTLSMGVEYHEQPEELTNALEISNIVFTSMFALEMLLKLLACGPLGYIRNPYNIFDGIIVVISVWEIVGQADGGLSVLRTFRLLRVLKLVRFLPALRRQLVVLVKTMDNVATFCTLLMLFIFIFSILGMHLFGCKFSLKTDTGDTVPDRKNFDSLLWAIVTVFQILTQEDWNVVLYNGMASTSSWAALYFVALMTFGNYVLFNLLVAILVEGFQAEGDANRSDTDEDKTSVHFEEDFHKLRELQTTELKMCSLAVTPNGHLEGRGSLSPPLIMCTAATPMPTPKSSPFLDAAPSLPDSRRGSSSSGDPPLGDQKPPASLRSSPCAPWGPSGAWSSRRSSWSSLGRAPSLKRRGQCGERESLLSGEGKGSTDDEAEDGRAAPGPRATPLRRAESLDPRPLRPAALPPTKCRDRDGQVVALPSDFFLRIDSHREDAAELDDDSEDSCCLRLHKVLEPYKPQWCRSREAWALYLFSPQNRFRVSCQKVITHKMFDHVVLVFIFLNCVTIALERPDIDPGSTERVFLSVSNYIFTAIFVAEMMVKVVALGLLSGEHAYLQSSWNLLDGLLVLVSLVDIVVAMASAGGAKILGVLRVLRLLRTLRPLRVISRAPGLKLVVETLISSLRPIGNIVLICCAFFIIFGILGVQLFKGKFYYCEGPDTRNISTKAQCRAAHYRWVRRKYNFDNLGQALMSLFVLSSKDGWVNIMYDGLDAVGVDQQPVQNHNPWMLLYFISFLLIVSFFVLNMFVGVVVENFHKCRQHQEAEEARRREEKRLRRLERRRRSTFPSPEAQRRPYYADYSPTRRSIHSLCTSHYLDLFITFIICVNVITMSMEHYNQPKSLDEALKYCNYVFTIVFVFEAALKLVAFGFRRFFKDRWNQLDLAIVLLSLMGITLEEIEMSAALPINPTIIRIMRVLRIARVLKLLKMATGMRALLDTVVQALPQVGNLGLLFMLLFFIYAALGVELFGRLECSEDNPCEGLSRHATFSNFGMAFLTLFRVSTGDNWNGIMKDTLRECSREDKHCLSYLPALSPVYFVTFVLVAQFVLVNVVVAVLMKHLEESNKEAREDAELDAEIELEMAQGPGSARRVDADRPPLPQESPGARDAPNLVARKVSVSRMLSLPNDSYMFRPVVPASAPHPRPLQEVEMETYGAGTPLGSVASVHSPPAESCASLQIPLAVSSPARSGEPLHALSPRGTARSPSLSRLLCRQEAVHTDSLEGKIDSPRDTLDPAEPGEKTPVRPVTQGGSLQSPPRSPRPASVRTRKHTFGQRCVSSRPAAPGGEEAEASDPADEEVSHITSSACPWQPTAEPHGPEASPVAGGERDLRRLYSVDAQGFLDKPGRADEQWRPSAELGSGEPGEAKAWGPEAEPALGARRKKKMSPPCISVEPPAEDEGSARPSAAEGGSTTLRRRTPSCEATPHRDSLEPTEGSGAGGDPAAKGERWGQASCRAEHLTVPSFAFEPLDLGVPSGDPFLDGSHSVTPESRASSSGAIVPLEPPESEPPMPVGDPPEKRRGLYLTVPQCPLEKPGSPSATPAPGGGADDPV
Method in brief: as §1

T1 sequence (O43497 whole entry): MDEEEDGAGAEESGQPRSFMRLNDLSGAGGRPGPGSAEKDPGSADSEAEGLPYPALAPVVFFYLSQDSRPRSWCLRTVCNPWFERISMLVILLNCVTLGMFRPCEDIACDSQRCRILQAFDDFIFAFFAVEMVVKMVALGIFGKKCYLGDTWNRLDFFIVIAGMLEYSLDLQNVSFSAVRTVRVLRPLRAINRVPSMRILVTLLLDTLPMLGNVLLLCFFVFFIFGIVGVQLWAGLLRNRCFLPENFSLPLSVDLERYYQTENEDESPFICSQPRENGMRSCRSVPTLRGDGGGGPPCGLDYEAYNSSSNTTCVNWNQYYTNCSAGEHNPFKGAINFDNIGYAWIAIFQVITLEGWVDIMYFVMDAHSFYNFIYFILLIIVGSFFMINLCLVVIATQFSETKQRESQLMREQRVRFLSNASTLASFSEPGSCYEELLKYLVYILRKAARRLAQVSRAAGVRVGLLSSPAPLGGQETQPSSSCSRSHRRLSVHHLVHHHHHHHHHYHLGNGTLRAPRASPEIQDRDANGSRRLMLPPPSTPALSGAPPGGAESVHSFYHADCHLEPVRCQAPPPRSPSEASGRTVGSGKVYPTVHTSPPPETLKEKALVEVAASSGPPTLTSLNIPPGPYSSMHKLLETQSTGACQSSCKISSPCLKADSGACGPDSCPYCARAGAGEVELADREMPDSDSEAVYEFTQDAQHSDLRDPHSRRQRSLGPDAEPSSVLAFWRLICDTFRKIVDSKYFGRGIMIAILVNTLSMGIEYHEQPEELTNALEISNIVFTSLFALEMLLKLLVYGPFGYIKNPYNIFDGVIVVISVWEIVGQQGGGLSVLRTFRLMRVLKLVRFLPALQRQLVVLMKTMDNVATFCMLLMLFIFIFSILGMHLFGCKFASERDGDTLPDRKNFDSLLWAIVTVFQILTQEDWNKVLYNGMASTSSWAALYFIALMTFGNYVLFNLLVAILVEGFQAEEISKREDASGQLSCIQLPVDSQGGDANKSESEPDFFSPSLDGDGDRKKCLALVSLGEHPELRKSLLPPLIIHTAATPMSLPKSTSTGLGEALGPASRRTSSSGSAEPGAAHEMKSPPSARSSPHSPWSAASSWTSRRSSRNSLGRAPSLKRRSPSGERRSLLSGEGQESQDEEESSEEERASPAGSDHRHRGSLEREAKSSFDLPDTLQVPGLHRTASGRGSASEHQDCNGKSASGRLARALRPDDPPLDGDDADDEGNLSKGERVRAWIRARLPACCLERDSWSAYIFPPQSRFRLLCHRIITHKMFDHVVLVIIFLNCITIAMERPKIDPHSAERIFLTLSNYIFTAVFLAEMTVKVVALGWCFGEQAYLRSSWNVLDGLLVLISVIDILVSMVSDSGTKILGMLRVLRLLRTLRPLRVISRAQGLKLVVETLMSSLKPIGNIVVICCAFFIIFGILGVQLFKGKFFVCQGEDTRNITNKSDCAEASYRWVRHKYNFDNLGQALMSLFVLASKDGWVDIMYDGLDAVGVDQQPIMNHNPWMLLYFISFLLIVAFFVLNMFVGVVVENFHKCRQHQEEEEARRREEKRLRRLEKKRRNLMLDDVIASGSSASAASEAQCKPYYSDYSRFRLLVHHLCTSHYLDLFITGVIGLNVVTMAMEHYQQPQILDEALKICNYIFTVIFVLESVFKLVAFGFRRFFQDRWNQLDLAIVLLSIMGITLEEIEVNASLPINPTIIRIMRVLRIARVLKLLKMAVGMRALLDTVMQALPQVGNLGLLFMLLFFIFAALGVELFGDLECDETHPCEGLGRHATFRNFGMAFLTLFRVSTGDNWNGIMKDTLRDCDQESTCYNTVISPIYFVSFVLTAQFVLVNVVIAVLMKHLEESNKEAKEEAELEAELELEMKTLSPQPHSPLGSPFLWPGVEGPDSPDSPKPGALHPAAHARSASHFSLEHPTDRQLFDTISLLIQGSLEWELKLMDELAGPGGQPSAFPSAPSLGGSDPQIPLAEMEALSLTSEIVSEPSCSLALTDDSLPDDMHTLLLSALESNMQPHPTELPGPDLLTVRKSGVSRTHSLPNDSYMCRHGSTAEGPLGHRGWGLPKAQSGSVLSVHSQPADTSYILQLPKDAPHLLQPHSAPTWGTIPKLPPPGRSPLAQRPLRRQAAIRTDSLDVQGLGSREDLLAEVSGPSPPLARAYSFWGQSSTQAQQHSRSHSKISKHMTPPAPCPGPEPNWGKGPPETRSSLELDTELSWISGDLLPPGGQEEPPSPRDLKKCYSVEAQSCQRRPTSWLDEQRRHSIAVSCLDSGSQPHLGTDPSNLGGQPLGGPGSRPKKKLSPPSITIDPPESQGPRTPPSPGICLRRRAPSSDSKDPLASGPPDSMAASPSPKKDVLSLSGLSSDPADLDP

| IC50 [1] | IC50 [2] | Structure (SMILES) |
| --- | --- | --- |
| ≤ 0.3 µM | 0.56 µM | COc1ccc(CN[C@H]2CC[C@@H](CNC(=O)c3cc(C(F)(F)F)cc(C(F)(F)F)c3)CC2)c(OC)c1 [Compound 14, N-((cis-4-(2,4-dimethoxybenzylamino)cyclohexyl)methyl)-3,5-bis(trifluoromethyl)benzamide] |
| ≤ 0.3 µM | 0.12 µM | CCC(CC)NC(=O)CN[C@H]1CC[C@@H](CNC(=O)c2cc(C(F)(F)F)cc(C(F)(F)F)c2)CC1 [Compound 42, N-((cis-4-(2-oxo-2-(pentan-3-ylamino)ethylamino)cyclohexyl)methyl)-3,5-bis(trifluoromethyl)benzamide] |
| 0.33 µM | 0.21 µM | CC(C)CNC(=O)CN[C@H]1CC[C@@H](CNC(=O)c2cc(C(F)(F)F)cc(C(F)(F)F)c2)CC1 [Compound 70, N-((cis-4-(2-(isobutylamino)-2-oxoethylamino)cyclohexyl)methyl)-3,5-bis(trifluoromethyl)benzamide] |
| 0.72 µM | 0.23 µM | CC1(NC(=O)CN[C@H]2CC[C@@H](CNC(=O)c3cc(F)cc(Cl)c3)CC2)CCC1 [Compound 193, 3-chloro-5-fluoro-N-(((1s,4s)-4-(2-(1-methylcyclobutylamino)-2-oxoethylamino)cyclohexyl)methyl)benzamide] |
| 4.54 µM | 4.43 µM | CC(C)(O)CN[C@H]1CC[C@H](CNC(=O)c2cc(C(F)(F)F)cc(C(F)(F)F)c2)CC1 [Compound 4, N-((trans-4-(2-hydroxy-2-methylpropylamino)cyclohexyl)methyl)-3,5-bis(trifluoromethyl)benzamide] |
| 2.02 µM | 1.1 µM | CN(C(=O)CN[C@H]1CC[C@H](CNC(=O)c2cc(F)cc(Cl)c2)CC1)C(C)(C)C [Compound 205, N-(((1r,4r)-4-(2-(tert-butyl(methyl)amino)-2-oxoethylamino)cyclohexyl)methyl)-3-chloro-5-fluorobenzamide] |
| 1.11 µM | 5.65 µM | O=C(NC[C@H]1CC[C@H](NC(=O)[C@@H]2CC[C@H](c3ccccc3)N2)CC1)c1cc(C(F)(F)F)cc(C(F)(F)F)c1 [Compound 135, (2S,5R)-N-(trans-4-((3,5-bis(trifluoromethyl)benzamido)methyl)cyclohexyl)-5-phenylpyrrolidine-2-carboxamide] |
| ≤ 0.3 µM | 1.54 µM | O=C(NC[C@H]1CC[C@@H](NCc2ccccc2O)CC1)c1cc(C(F)(F)F)cc(C(F)(F)F)c1 [Compound 7, N-((cis-4-(2-hydroxybenzylamino)cyclohexyl)methyl)-3,5-bis(trifluoromethyl)benzamide] |
| ≤ 0.3 µM | 0.26 µM | CN(C(=O)CN[C@H]1CC[C@@H](CNC(=O)c2cc(C(F)(F)F)cc(C(F)(F)F)c2)CC1)C1CCCC1 [Compound 44, N-((cis-4-(2-(cyclopentyl(methyl)amino)-2-oxoethylamino)cyclohexyl)methyl)-3,5-bis(trifluoromethyl)benzamide] |
| 0.78 µM | 1.65 µM | O=C(NC[C@H]1CC[C@@H](NCc2ccccc2O)CC1)c1cc(F)cc(C(F)(F)F)c1 [Compound 15, 3-fluoro-N-((cis-4-(2-hydroxybenzylamino)cyclohexyl)methyl)-5-(trifluoromethyl)benzamide] |
| 1.38 µM | 1.71 µM | CC(C)CNC(=O)CNC[C@H]1CC[C@H](NC(=O)c2cc(C(F)(F)F)cc(C(F)(F)F)c2)CC1 [Compound 93, N-(trans-4-((2-(isobutylamino)-2-oxoethylamino)methyl)cyclohexyl)-3,5-bis(trifluoromethyl)benzamide] |
| 1.63 µM | 0.62 µM | CC1(NC(=O)CN[C@H]2CC[C@H](CNC(=O)c3cccc(OC(F)(F)F)c3)CC2)CCC1 [Compound 190, N-(((1r,4r)-4-(2-(1-methylcyclobutylamino)-2-oxoethylamino)cyclohexyl)methyl)-3-(trifluoromethoxy)benzamide] |
| 1.97 µM | 9.76 µM | O=C(NC[C@H]1CC[C@H](NCc2cccnc2F)CC1)c1cc(C(F)(F)F)cc(C(F)(F)F)c1 [Compound 27, N-((trans-4-((2-fluoropyridin-3-yl)methylamino)cyclohexyl)methyl)-3,5-bis(trifluoromethyl)benzamide] |
| 5.59 µM | 2.89 µM | Cc1cc(CN[C@H]2CC[C@H](CNC(=O)c3cc(C(F)(F)F)cc(C(F)(F)F)c3)CC2)no1 [Compound 67, N-((trans-4-((5-methylisoxazol-3-yl)methylamino)cyclohexyl)methyl)-3,5-bis(trifluoromethyl)benzamide] |
| 7.73 µM | 4.94 µM | O=C(NC[C@H]1CC[C@@H](NCc2cccnc2F)CC1)c1cc(F)cc(C(F)(F)F)c1 [Compound 17, 3-fluoro-N-((cis-4-((2-fluoropyridin-3-yl)methylamino)cyclohexyl)methyl)-5-(trifluoromethyl)benzamide] |
| ≤ 0.3 µM | ≥ 10 µM | Cc1ccc(-c2csc(NC(=O)C[C@H]3CC[C@@H](NCC(O)(C(F)(F)F)C(F)(F)F)CC3)n2)cc1 [Compound 152, N-(4-p-tolylthiazol-2-yl)-2-(cis-4-(3,3,3-trifluoro-2-hydroxy-2-(trifluoromethyl)propylamino)cyclohexyl)acetamide] |
| 3.32 µM | 5.35 µM | COc1cccnc1CN[C@H]1CC[C@@H](CNC(=O)c2cc(F)cc(C(F)(F)F)c2)CC1 [Compound 20, 3-fluoro-N-((cis-4-((3-methoxypyridin-2-yl)methylamino)cyclohexyl)methyl)-5-(trifluoromethyl)benzamide] |
| 1.62 µM | 0.21 µM | CN(C(=O)CN[C@H]1CC[C@@H](CNC(=O)c2cc(F)cc(Cl)c2)CC1)C(C)(C)C [Compound 196, N-(((1s,4s)-4-(2-(tert-butyl(methyl)amino)-2-oxoethylamino)cyclohexyl)methyl)-3-chloro-5-fluorobenzamide] |
| 0.53 µM | 1.01 µM | COc1ccccc1CN[C@H]1CC[C@@H](CNC(=O)c2cc(F)cc(C(F)(F)F)c2)CC1 [Compound 19, 3-fluoro-N-((cis-4-(2-methoxybenzylamino)cyclohexyl)methyl)-5-(trifluoromethyl)benzamide] |
| 1.51 µM | 2.05 µM | CC(C)(C)CC(=O)NCCN[C@H]1CC[C@H](CNC(=O)c2cc(C(F)(F)F)cc(C(F)(F)F)c2)CC1 [Compound 101, N-((trans-4-(2-(3,3-dimethylbutanamido)ethylamino)cyclohexyl)methyl)-3,5-bis(trifluoromethyl)benzamide] |
| 0.97 µM | 1.81 µM | O=C(CCC(F)(F)F)NCCN[C@H]1CC[C@H](CNC(=O)c2cc(C(F)(F)F)cc(C(F)(F)F)c2)CC1 [Compound 102, N-((trans-4-(2-(4,4,4-trifluorobutanamido)ethylamino)cyclohexyl)methyl)-3,5-bis(trifluoromethyl)benzamide] |
| 0.84 µM | 4.58 µM | O=C(NC[C@H]1CC[C@@H](NCc2cccc(F)c2O)CC1)c1cc(F)cc(C(F)(F)F)c1 [Compound 21, 3-fluoro-N-((cis-4-(3-fluoro-2-hydroxybenzylamino)cyclohexyl)methyl)-5-(trifluoromethyl)benzamide] |
| 0.91 µM | 2.87 µM | O=C(NC[C@H]1CC[C@@H](NCc2c(F)cccc2Cl)CC1)c1cc(F)cc(C(F)(F)F)c1 [Compound 23, N-((cis-4-(2-chloro-6-fluorobenzylamino)cyclohexyl)methyl)-3-fluoro-5-(trifluoromethyl)benzamide] |
